What is called IC50 is the concentration needed to halve the response being measured. Read a high IC50 as weaker potency in that assay. The EC50 is the concentration at which the effect is half-maximal.

Assay [1] concerns A549 human tumor cell line. Put plainly: Cytotoxicity assay, MTT method, A549. It counts as cell-based. Here is the method:
The cytotoxicity of Fr. […] The IC50 value of each compound was calculated by Reed and Muench’s method. Experiments were repeated three times and carried out in triplicate.
(Tetrazolium dyes change colour on reduction, which living cells bring about.)

Assay [2] concerns HeLa human tumor cell line. Put plainly: Cytotoxicity assay, MTT method, HeLa. It counts as cell-based. An excerpt:
(§1) A frozen specimen of Muriceides collaris (9.6 kg, wet weight) was homogenized and then extracted with MeOH four times (each time, 3 days) at room temperature. The combined solutions were concentrated in vacuo and the concentrated extract was subsequently desalted by redissolving with MeOH to yield a residue (221 g). The crude extract was subjected to silica gel vacuum liquid chromatography (VLC), eluting with a gradient of petroleum/acetone (from 10:0 to 1:1, v:v) and subsequently CH2Cl2/MeOH (from 20:1 to 0:1, v-v) to obtain nine fractions (Fr.A−Fr.I). Each fraction was detected by TLC, and was tested for their cytotoxicity against HeLa and K562 cell lines at 50 μg/mL. […] Fr.G (3.5 g) was then subjected to a Sephadex LH-20 column eluted with CH2Cl2/MeOH (1:1, v/v) to give […]. Fr.G-3 (1.018 g) was separated by silica gel CC (CH2Cl2/MeOH, 30:1, v-v) to give six subfractions (Fr.G-3-1 to Fr.G-3-6). Fr.G-3-2 (223 mg) was purified by ODS CC with a gradient of MeOH/H2O (from 20% to 100%) to yield four subfractions (Fr.G-3-2-1 to Fr.G-3-2-4). Fr.G-3-2-3 (25.0 mg) was purified by semi-preparative HPLC (ODS, 5 μm, 250 × 10 mm; MeOH/H2O, 65:35, v/v; 1.5 mL/min) to afford muriceidines A (1, 10.3 mg) and B (2, 9.6 mg). Fr.G-3-4 (137 mg) was purified by ODS column chromatograph with a gradient of MeOH/H2O (from 20% to 100%) to yield four subfractions (Fr.G-3-4-1 to Fr.G-3-4-4). And Fr.G-3-4-1 (9.6 mg) was further purified by semi-preparative HPLC (ODS, 5 μm, 250 × 10 mm; MeOH/H2O, 60:40, v/v; 1.5 mL/min) to afford muriceidine C (3, 4.6 mg). Similarly, muriceidone A (4, 3.7 mg) and the co-isolated known 3-formylguaiazulene (6, 9.1 mg) was obtained in subfraction Fr. […] And GA (5, 1.5 mg) was obtained in subfraction Fr. […] Chiral seperations of partial 2 [Daicel Chiralpack IB, 5 μm, 4.6 mm × 250 mm], 3 [Daicel Chiralpack IC, 5 μm, 4.6 mm × 250 mm; MeOH, 1.5 mL/min], and 4 [Daicel Chiralpack IC, 5 μm, 4.6 mm × 250 mm; Hexane/isopropyl alcohol 97:3, 1.5 mL/min] were performed on Agilent analytical HPLC system to afford optically pure (+)-2 (0.9 mg), (−)-2 (1.2 mg), (+)-3 (2.5 mg), (−)-3 (2.2 mg), (+)-4 (1.5 mg), and (−)-4 (1.6 mg) (Fig. S1).
(§2) The cytotoxicity of Fr. A–I against K562 and HeLa cell lines and compounds 1–4 against K562, HeLa, A-549, and HL-60 human tumor cell lines were determined by MTT method with Adriamycin as a positive control. The IC50 value of each compound was calculated by Reed and Muench’s method. Experiments were repeated three times and carried out in triplicate.

In assay [3] the test system is K562 human tumor cell line. Put plainly: Cytotoxicity assay, MTT method, K562. Format: cell-based.
From the text: as §1, §2

Assay [4] has as its system HL-60 human tumor cell line. As to the kind of experiment: Cytotoxicity assay, MTT method, HL-60. It counts as cell-based. Particulars: HL-60 cell line. Here is the method: as §2
Assay [5] relates to larvae of the barnacle Balanus albicostatus. Put plainly: Antifouling assay, barnacle larval settlement and mortality. Format: in vivo, Balanus albicostatus Pilsbry. As to conditions: Fistulobalanus albicostatus, read-out: EC50 antifouling activity (50% of larval population inhibited to settle). As for the experimental part:
The antifouling activity of compounds 1–6 against larval of the barnacle Balanus albicostatus Pilsbry were determined according to the literature. EC50 was calculated as the concentration where 50% of the larval population was inhibited to settle as compared to the control while LC50 was calculated as the concentration where 50% of the larval population was dead. Experiments were repeated three times and carried out in triplicate.

[6] abbreviates: Homo sapiens, HL-60, MTT method.

Each structure is given as a SMILES string. In brackets after ≈: the same amount, converted by molar mass. Where two headings read alike, the source gives them in different places.

`COC1CCN=C(C(=O)O)/C1=C/c1cc(C)c2cc(C(C)C)ccc(C)c1-2` (racemic) [compound 3, (±)-Muriceidine C]: the IC50 is 82.7 µM in assay [1] (Homo sapiens); > 100 µM in assay [2] (Homo sapiens, HeLa); 3.68 µM in assay [3] (Homo sapiens, K562, MTT method); 3.7 µM in assay [3] (MTT method); 2.19 µM in assay [4] (setting [6]); 2.2 µM in assay [4] (MTT method).
As to `Cc1cc(/C=C2\CCCN=C2C(=O)O)c2c(C)ccc(C(C)C)cc1-2` [compound 1, Muriceidine A], the IC50 in assay [1] (Homo sapiens) is > 100 µM; in assay [2] (Homo sapiens, HeLa), 17.9 µM; in assay [3] (Homo sapiens, K562, MTT method), 8.37 µM; in assay [3] (MTT method), 8.4 µM; in assay [4] (setting [6]) it was > 100 µM. Also, the EC50 in assay [5] turned out to be 11.9 µg/mL (≈ 35.5 µM).
On to `CO[C@H]1CCN=C(C(=O)O)/C1=C/c1cc(C)c2cc(C(C)C)ccc(C)c1-2` [(+)-3], for which the IC50 in assay [1] (Homo sapiens) is > 100 µM; in assay [2] (Homo sapiens, HeLa), 53.7 µM; in assay [3] (Homo sapiens, K562, MTT method), 47.2 µM; in assay [4] (setting [6]), 22.7 µM.
Turning to `Cc1cc(C=O)c2c(C)ccc(C(C)C)cc1-2` [compound 6, 3-formyl guaiazulene], the EC50 in assay [5] came out at 2.39 µg/mL (≈ 10.6 µM).
`CC1=CC(=O)C2(C3C(=O)c4c(cc(C(C)C)c(C=O)c4C)C3(C)O)C(C)=CC=C(C(C)C)C=C12` (racemic) [compound 4, (±)-Muriceidone A]: the IC50 in assay [1] (Homo sapiens) was > 100 µM; in assay [2], > 100 µM; in assay [3] (Homo sapiens, K562, MTT method) it was > 100 µM; in assay [4] (setting [6]) it was > 100 µM.
In the case of `CC1=CC(=O)C2(C3C(=O)c4c(cc(C(C)C)c(C=O)c4C)C3(C)O)C(C)=CC=C(C(C)C)C=C12` (single isomer, unassigned; (-)) [(−)-4], the IC50 is > 100 µM in assay [1], 40 µM in assay [2], > 100 µM in assay [3] (MTT method) and > 100 µM in assay [4] (MTT method).
For `COc1cccc2c1C(=O)c1c(O)c3c(c(O)c1C2=O)C[C@@](O)(C(=O)CO)C[C@@H]3O[C@H]1C[C@H](N)[C@H](O)[C@H](C)O1` [Adramycin, Adriamycin, reference compound], the IC50 in assay [1] (Homo sapiens) turned out to be 0.6 µM; in assay [2] (Homo sapiens, HeLa), 0.6 µM; in assay [3] (Homo sapiens, K562, MTT method), 0.2 µM; in assay [4] (setting [6]) it was 0.3 µM.
In the case of `Cc1cc(/C=C2/C(C(=O)O)=NCC[C@H]2O)c2c(C)ccc(C(C)C)cc1-2` [(−)-2], the IC50 is > 100 µM in assay [1] (Homo sapiens); > 100 µM in assay [2] (Homo sapiens, HeLa); > 100 µM in assay [3] (Homo sapiens, K562, MTT method); > 100 µM in assay [4] (setting [6]).
Turning to `CC1=CC(=O)C2(C3C(=O)c4c(cc(C(C)C)c(C=O)c4C)C3(C)O)C(C)=CC=C(C(C)C)C=C12` (single isomer, unassigned; (+)) [(+)-4], the IC50 in assay [1] was > 100 µM; in assay [2] it was 42.7 µM; in assay [3] (MTT method), 88.4 µM; in assay [4] (MTT method) it was 54.2 µM.
As to `Cc1cc(/C=C2/C(C(=O)O)=NCC[C@@H]2O)c2c(C)ccc(C(C)C)cc1-2` [(+)-2], the IC50 in assay [1] (Homo sapiens) is > 100 µM; in assay [2] (Homo sapiens, HeLa) it was > 100 µM; in assay [3] (Homo sapiens, K562, MTT method), > 100 µM; in assay [4] (setting [6]) it was > 100 µM.
Consider `Cc1cc(/C=C2/C(C(=O)O)=NCCC2O)c2c(C)ccc(C(C)C)cc1-2` (racemic) [compound 2, (±)-Muriceidine B], for which the IC50 is > 100 µM in assay [1] (Homo sapiens); > 100 µM in assay [2] (Homo sapiens, HeLa); > 100 µM in assay [3] (Homo sapiens, K562, MTT method); > 100 µM in assay [4] (setting [6]).
As for `CO[C@@H]1CCN=C(C(=O)O)/C1=C/c1cc(C)c2cc(C(C)C)ccc(C)c1-2` [(−)-3], the IC50 was > 100 µM in assay [1] (Homo sapiens); 53.2 µM in assay [2] (Homo sapiens, HeLa); 53.2 µM in assay [3] (Homo sapiens, K562, MTT method); 5.08 µM in assay [4] (setting [6]); 5.1 µM in assay [4] (MTT method).

Values taken from publication PMC5550455, “Unusual Inner-Salt Guaiazulene Alkaloids and bis-Sesquiterpene from the South China Sea Gorgonian Muriceides collaris” (Scientific Reports, 2017).
